Experimental data published in ChEMBL document CHEMBL1201861, “Genomics of Drug Sensitity in Cancer screening data, Wellcome Trust Sanger Institute”.

Assays:
Test in all cases: cells
Type in all cases: functional, cell-based, Homo sapiens
Capan-2 = test system: Capan-2;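 further: Capan-2 cell growth inhibition, read out with a viability assay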
Description: SANGER: Inhibition of human Capan-2 cell growth in a cell viability assay.

ChaGo-K-1 = test system: ChaGo-K-1;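 further: growth inhibition of ChaGo-K-1 cells, read out with a cell viability assay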
Description: SANGER: Inhibition of human ChaGo-K-1 cell growth in a cell viability assay.

DoTc2-4510 = test system: DoTc2-4510
EPLC-272H = test system: EPLC-272H
Description: SANGER: Inhibition of human EPLC-272H cell growth in a cell viability assay.

G-361 = test system: G-361
G-401 = test system: G-401
Description: SANGER: Inhibition of human G-401 cell growth in a cell viability assay.

GAMG = test system: GAMG;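 further: cell growth inhibition measured by a viability assay in the GAMG human cell line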
Description: SANGER: Inhibition of human GAMG cell growth in a cell viability assay.

HCC1937 = test system: HCC1937;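 further: growth inhibition measured with a cell viability read-out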
Description: SANGER: Inhibition of human HCC1937 cell growth in a cell viability assay.

HCC1954 = test system: HCC1954;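 further: growth inhibition of human HCC1954 cells, read out with a cell viability assay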
Description: SANGER: Inhibition of human HCC1954 cell growth in a cell viability assay.

JEG-3 = test system: JEG-3;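 further: growth inhibition of human JEG-3 cells, read out with a cell viability assay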
Description: SANGER: Inhibition of human JEG-3 cell growth in a cell viability assay.

KP-4 = test system: KP-4;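 further: human KP-4 cells, with growth inhibition read out through a cell viability assay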
Description: SANGER: Inhibition of human KP-4 cell growth in a cell viability assay.

KU-19-19 = test system: KU-19-19
Description: SANGER: Inhibition of human KU-19-19 cell growth in a cell viability assay.

KYSE-140 = test system: KYSE-140;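 further: cell viability assay measuring growth inhibition in human KYSE-140 cells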
Description: SANGER: Inhibition of human KYSE-140 cell growth in a cell viability assay.

KYSE-410 = test system: KYSE-410;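 further: growth inhibition of KYSE-410 cells, measured through a cell viability readout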
Description: SANGER: Inhibition of human KYSE-410 cell growth in a cell viability assay.

MDA-MB-175-VII = test system: MDA-MB-175-VII
MDA-MB-361 = test system: MDA-MB-361
ME-180 = test system: ME-180;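 further: cell viability assay measuring growth inhibition of ME-180 cells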
Description: SANGER: Inhibition of human ME-180 cell growth in a cell viability assay.

MKN-45 = test system: MKN-45;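 further: growth inhibition of human MKN-45 cells, measured with a cell viability assay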
Description: SANGER: Inhibition of human MKN45 cell growth in a cell viability assay.

MKN-7 = test system: MKN-7;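 further: growth inhibition of MKN-7 cells, read out with a cell viability assay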
Description: SANGER: Inhibition of human MKN7 cell growth in a cell viability assay.

MeWo = test system: MeWo;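 further: growth inhibition of MeWo cells, determined by a cell viability readout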
Description: SANGER: Inhibition of human Mewo cell growth in a cell viability assay.

NCI-H1048 = test system: NCI-H1048;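 further: growth inhibition of human NCI-H1048 cells, read out with a cell viability assay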
Description: SANGER: Inhibition of human NCI-H1048 cell growth in a cell viability assay.

NCI-H2342 = test system: NCI-H2342;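 further: growth inhibition of the cancer cell line, determined with a cell viability assay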
Description: SANGER: Inhibition of human NCI-H2342 cell growth in a cell viability assay.

NCI-H520 = test system: NCI-H520;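 further: growth inhibition of NCI-H520 cells, measured by a cell viability assay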
Description: SANGER: Inhibition of human NCI-H520 cell growth in a cell viability assay.

NUGC-3 = test system: NUGC-3;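 further: growth inhibition of human NUGC-3 cells, read out with a cell viability assay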
Description: SANGER: Inhibition of human NUGC-3 cell growth in a cell viability assay.

OC-314 = test system: OC-314
Description: SANGER: Inhibition of human OC-314 cell growth in a cell viability assay.

PC-3 = test system: PC-3;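 further: cell viability assay measuring growth inhibition of PC-3 cells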
Description: SANGER: Inhibition of human PC-3 cell growth in a cell viability assay.

SF-295 = test system: SF-295;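 further: growth inhibition of SF-295 cells, read out with a cell viability assay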
Description: SANGER: Inhibition of human SF295 cell growth in a cell viability assay.

SW13 = test system: SW13;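 further: IC50 is inhibition of SW13 cell growth, read out with a cell viability assay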
Description: SANGER: Inhibition of human SW13 cell growth in a cell viability assay.

SW837 = test system: SW837;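 further: growth inhibition of SW837 cells, determined with a cell viability assay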
Description: SANGER: Inhibition of human SW837 cell growth in a cell viability assay.

T84 = test system: T84;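 further: growth inhibition measured with a cell viability readout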
Description: SANGER: Inhibition of human T84 cell growth in a cell viability assay.

786-0 = test system: 786-0
Description: SANGER: Inhibition of human 786-0 cell growth in a cell viability assay.

A204 = test system: A204;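 further: growth inhibition of human A204 cells, read out with a cell viability assay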
Description: SANGER: Inhibition of human A204 cell growth in a cell viability assay.

AN3-CA = test system: AN3-CA;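 further: growth inhibition of human AN3-CA cells measured by a cell viability assay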
Description: SANGER: Inhibition of human AN3-CA cell growth in a cell viability assay.

BHY = test system: BHY;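 further: cell growth inhibition read out by a viability assay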
Description: SANGER: Inhibition of human BHY cell growth in a cell viability assay.

WM-115 = test system: WM-115
Description: SANGER: Inhibition of human WM-115 cell growth in a cell viability assay.

COLO-679 = test system: COLO-679
Description: SANGER: Inhibition of human COLO-679 cell growth in a cell viability assay.

## CO[C@H]1C[C@@H]2CC[C@@H](C)[C@@](O)(O2)C(=O)C(=O)N2CCCC[C@H]2C(=O)O[C@H]([C@H](C)C[C@@H]2CC[C@@H](OC(=O)C(C)(CO)CO)[C@H](OC)C2)CC(=O)[C@H](C)/C=C(\C)[C@@H](O)[C@@H](OC)C(=O)[C@H](C)C[C@H](C)/C=C/C=C/C=C/1C [TEMSIROLIMUS]
Capan-2; Homo sapiens, Capan-2
  IC50: > 0.2 µM
ChaGo-K-1; Homo sapiens, ChaGo-K-1
  IC50: > 0.2 µM
DoTc2-4510; Homo sapiens, DoTc2-4510
  IC50: > 0.2 µM
EPLC-272H; Homo sapiens, EPLC-272H
  IC50: > 0.2 µM
G-361; Homo sapiens, G-361
  IC50: 0.146 µM
G-401; Homo sapiens, G-401
  IC50: 0.089 µM
GAMG; Homo sapiens, GAMG
  IC50: 0.00382 µM
HCC1937; Homo sapiens, HCC1937
  IC50: > 0.2 µM
HCC1954; Homo sapiens, HCC1954
  IC50: > 0.2 µM
JEG-3; Homo sapiens, JEG-3
  IC50: > 0.2 µM
KP-4; Homo sapiens, KP-4
  IC50: 0.116 µM
KU-19-19; Homo sapiens, KU-19-19
  IC50: > 0.2 µM
KYSE-140; Homo sapiens, KYSE-140
  IC50: 0.156 µM
KYSE-410; Homo sapiens, KYSE-410
  IC50: 0.18 µM
MDA-MB-175-VII; Homo sapiens, MDA-MB-175-VII
  IC50: > 0.2 µM
MDA-MB-361; Homo sapiens, MDA-MB-361
  IC50: > 0.2 µM
ME-180; Homo sapiens, ME-180
  IC50: 0.109 µM
MKN-45; Homo sapiens, MKN-45
  IC50: > 0.2 µM
MKN-7; Homo sapiens, MKN-7
  IC50: > 0.2 µM
MeWo; Homo sapiens, MeWo
  IC50: 0.0494 µM
NCI-H1048; Homo sapiens, NCI-H1048
  IC50: > 0.2 µM
NCI-H2342; Homo sapiens, NCI-H2342
  IC50: > 0.2 µM
NCI-H520; Homo sapiens, NCI-H520
  IC50: > 0.2 µM
NUGC-3; Homo sapiens, NUGC-3
  IC50: 0.0235 µM
OC-314; Homo sapiens, OC-314
  IC50: 0.0179 µM
PC-3; Homo sapiens, PC-3
  IC50: 0.00914 µM
SF-295; Homo sapiens, SF-295
  IC50: 0.0605 µM
SW13; Homo sapiens, SW13
  IC50: 0.186 µM
SW837; Homo sapiens, SW837
  IC50: > 0.2 µM
T84; Homo sapiens, T84
  IC50: > 0.2 µM
786-0; Homo sapiens
  IC50: 0.0517 µM
A204; Homo sapiens, A204
  IC50: 0.0389 µM
AN3-CA; Homo sapiens, AN3-CA
  IC50: 0.0569 µM
BHY; Homo sapiens, BHY
  IC50: > 0.2 µM
WM-115; Homo sapiens, WM-115
  IC50: > 0.2 µM
COLO-679; Homo sapiens, COLO-679
  IC50: > 0.2 µM

## CS(=O)(=O)c1ccc(C(=O)Nc2ccc(Cl)c(-c3ccccn3)c2)c(Cl)c1 [VISMODEGIB]
Capan-2; Homo sapiens, Capan-2
  IC50: > 10 µM
ChaGo-K-1; Homo sapiens, ChaGo-K-1
  IC50: > 10 µM
DoTc2-4510; Homo sapiens, DoTc2-4510
  IC50: > 10 µM
EPLC-272H; Homo sapiens, EPLC-272H
  IC50: > 10 µM
G-361; Homo sapiens, G-361
  IC50: > 10 µM
G-401; Homo sapiens, G-401
  IC50: > 10 µM
GAMG; Homo sapiens, GAMG
  IC50: > 10 µM
HCC1937; Homo sapiens, HCC1937
  IC50: > 10 µM
HCC1954; Homo sapiens, HCC1954
  IC50: > 10 µM
JEG-3; Homo sapiens, JEG-3
  IC50: > 10 µM
KP-4; Homo sapiens, KP-4
  IC50: > 10 µM
KU-19-19; Homo sapiens, KU-19-19
  IC50: > 10 µM
KYSE-140; Homo sapiens, KYSE-140
  IC50: > 10 µM
KYSE-410; Homo sapiens, KYSE-410
  IC50: > 10 µM
MDA-MB-175-VII; Homo sapiens, MDA-MB-175-VII
  IC50: > 10 µM
MDA-MB-361; Homo sapiens, MDA-MB-361
  IC50: > 10 µM
ME-180; Homo sapiens, ME-180
  IC50: > 10 µM
MKN-45; Homo sapiens, MKN-45
  IC50: > 10 µM
MKN-7; Homo sapiens, MKN-7
  IC50: > 10 µM
MeWo; Homo sapiens, MeWo
  IC50: > 10 µM
NCI-H1048; Homo sapiens, NCI-H1048
  IC50: > 10 µM
NCI-H2342; Homo sapiens, NCI-H2342
  IC50: > 10 µM
NCI-H520; Homo sapiens, NCI-H520
  IC50: > 10 µM
NUGC-3; Homo sapiens, NUGC-3
  IC50: > 10 µM
OC-314; Homo sapiens, OC-314
  IC50: > 10 µM
PC-3; Homo sapiens, PC-3
  IC50: > 10 µM
SF-295; Homo sapiens, SF-295
  IC50: > 10 µM
SW13; Homo sapiens, SW13
  IC50: > 10 µM
SW837; Homo sapiens, SW837
  IC50: > 10 µM
T84; Homo sapiens, T84
  IC50: > 10 µM
786-0; Homo sapiens
  IC50: > 10 µM
A204; Homo sapiens, A204
  IC50: > 10 µM
AN3-CA; Homo sapiens, AN3-CA
  IC50: > 10 µM
BHY; Homo sapiens, BHY
  IC50: > 10 µM
WM-115; Homo sapiens, WM-115
  IC50: > 10 µM
COLO-679; Homo sapiens, COLO-679
  IC50: > 10 µM

## CISPLATIN
Capan-2; capan-2
  IC50: 243 µM
ChaGo-K-1; chago-k-1
  IC50: 15.2 µM
DoTc2-4510; dotc2-4510
  IC50: 63.6 µM
EPLC-272H; eplc-272h
  IC50: 13 µM
G-361; g-361
  IC50: 672 µM
G-401; g-401
  IC50: 7.25 µM
GAMG; gamg
  IC50: 289 µM
HCC1937; hcc1937
  IC50: 137 µM
HCC1954; hcc1954
  IC50: 1030 µM
JEG-3; jeg-3
  IC50: 10.3 µM
KP-4; kp-4
  IC50: 11.7 µM
KU-19-19; ku-19-19
  IC50: 10.1 µM
KYSE-140; kyse-140
  IC50: 7.59 µM
KYSE-410; kyse-410
  IC50: 515 µM
MDA-MB-175-VII; mda-mb-175-vii
  IC50: 69.7 µM
MDA-MB-361; mda-mb-361
  IC50: 18.5 µM
ME-180; me-180
  IC50: 55.2 µM
MKN-45; mkn-45
  IC50: 28.6 µM
MKN-7; mkn-7
  IC50: 20 µM
MeWo; mewo
  IC50: 16.7 µM
NCI-H1048; nci-h1048
  IC50: 9.87 µM
NCI-H2342; nci-h2342
  IC50: 53.8 µM
NCI-H520; nci-h520
  IC50: 72.8 µM
NUGC-3; nugc-3
  IC50: 2.14 µM
OC-314; oc-314
  IC50: 14 µM
PC-3; pc-3
  IC50: 96.7 µM
SF-295; sf-295
  IC50: 9.34 µM
SW13; sw13
  IC50: 14.3 µM
SW837; sw837
  IC50: 190 µM
T84; t84
  IC50: 356 µM
786-0
  IC50: 4.47 µM
A204; a204
  IC50: 64.4 µM
AN3-CA; an3-ca
  IC50: 9.94 µM
BHY; bhy
  IC50: 49.3 µM
WM-115; wm-115
  IC50: 33.4 µM
COLO-679; colo-679
  IC50: 765 µM
